Laboratory results published in publication PMC6894070, “The Plasmodium falciparum Hsp70-x chaperone assists the heat stress response of the malaria parasite” (The FASEB Journal, 2019).

What was measured:
[1] = biological target: T1, Hsc70 (Homo sapiens, UniProt P11142); conditions: 5 uM chaperone, 1 mM ATP, Mg2+, pH 8, 25 C
T1 construct: gene HSPA8

[2] = biological target: T2, PfHsp70-x (Plasmodium falciparum, UniProt A0A143ZXN1); experiment: MESG-coupled ATPase assay; format: biochemical; conditions: 5 uM chaperone alone, 1 mM ATP, pH 8, 25 C
T2 construct: gene PF3D7_0831700; aa 25-679, export signal peptide excluded; codon-optimized synthetic DNA; N-terminal His6 tag cut by 3C protease; expressed in E. coli Rosetta2(DE3)

[3] = biological target: T2, PfHsp70-x; experiment: MESG-coupled ATPase assay; format: biochemical; conditions: 5 uM chaperone alone, 1 mM ATP, pH 8, 25 C; remark: listed apart in the source

T1 sequence (P11142 whole entry): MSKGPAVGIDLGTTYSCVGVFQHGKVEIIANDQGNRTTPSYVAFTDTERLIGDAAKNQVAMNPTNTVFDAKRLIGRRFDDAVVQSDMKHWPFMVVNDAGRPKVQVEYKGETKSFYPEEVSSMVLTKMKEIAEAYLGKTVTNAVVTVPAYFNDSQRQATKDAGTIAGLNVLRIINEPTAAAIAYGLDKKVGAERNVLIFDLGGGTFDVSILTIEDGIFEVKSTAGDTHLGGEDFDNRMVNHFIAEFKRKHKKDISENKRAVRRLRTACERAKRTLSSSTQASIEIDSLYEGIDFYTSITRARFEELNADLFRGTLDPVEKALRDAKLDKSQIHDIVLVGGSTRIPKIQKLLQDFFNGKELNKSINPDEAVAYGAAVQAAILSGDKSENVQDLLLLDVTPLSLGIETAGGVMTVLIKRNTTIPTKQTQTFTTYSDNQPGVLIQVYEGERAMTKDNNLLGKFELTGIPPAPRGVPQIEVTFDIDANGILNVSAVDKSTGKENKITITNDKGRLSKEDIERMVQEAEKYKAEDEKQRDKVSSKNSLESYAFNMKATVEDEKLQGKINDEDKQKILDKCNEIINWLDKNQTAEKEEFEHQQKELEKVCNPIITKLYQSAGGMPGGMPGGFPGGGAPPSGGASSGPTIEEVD

## Nc1ncnc2c1ncn2[C@@H]1O[C@H](COP(=O)(O)OP(=O)(O)OP(=O)(O)O)[C@@H](O)[C@H]1O [ATP]
[1]
  MESG-coupled ATPase assay: fold changes in ATP hydrolysis activities of PfHsp70-x (A, B) or human Hsc70 (C, D)

## CC1(C)OC2=C(CC1Br)C(=O)C(=O)c1ccccc12 (stereo not drawn) [BBL, bromo-β-lapachona]
[2]
  apparent half-maximal inhibitory concentration: BBL inhibited PfHsp70-x in our ATPase assays with low micromolar apparent half-maximal inhibitory concentration

## CN(C)c1ccc2nc3ccc(=[N+](C)C)cc-3sc2c1 [methylene blue]
[3]
  half-maximal inhibitory concentration: methylene blue inhibits both basal and stimulated PfHsp70-x activity
